Data on 20 compounds can be found in patent US10898481B2 (priority 2018, dated 2021).

pIC50: −log10 of the molar value. Like-named read-outs stand apart in the source and are kept apart here.

Assay [1] concerns the target hADORA1/CHO (hA1 expressing) cells (Homo sapiens (Human), UniProt P30542). In words: cell-based. Conditions: FLIPR inhibition, 10 μM adenosine, read-out: cAMP & FLIPR IC50 (nM) hA1.
The target in another assay is hA2a/CHO (Homo sapiens (Human), UniProt P29274). In words: cAMP inhibition assay in hA2a/CHO cells, 10 μM adenosine.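 Note: compounds added to cells 30 min ahead of adenosine, then a further 30 min at 37 °C with adenosine before cAMP detection.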 Type of assay: cell-based. Conditions: read-out: cAMP & FLIPR IC50 (nM) hA2a.
The target in a further assay is hA2b/CHO (Homo sapiens (Human), UniProt P29275). Nature of the assay: cAMP inhibition assay in hA2b/CHO cells, 10 μM adenosine.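 Note: cells exposed to compound 30 min at 37 °C, then stimulated with adenosine a further 30 min, cAMP read after 60 min at room temperature.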 Type of assay: cell-based. Conditions: read-out: cAMP & FLIPR IC50 (nM) hA2b.
The next assay deals with hA3/CHO (Homo sapiens (Human), UniProt P0DMS8). In words: cell-based. The procedure:
hA2a/CHO, hA2b/CHO, hA3/CHO and mA2a/CHO (Genscript) were plated at 5×10^3 cells/well into 384-well polystyrene plates at the day of experiment. Compounds were pre-incubated with cells for 30 min at 37° C., 5% CO2. Then 10 μM adenosine was added to the cells and incubated for 30 min at 37° C., 5% CO2. Detection reagent (CISBIO) was added and the plates were incubated for 60 min at room temperature. The signal was captured by Envision.

The next assay concerns the target mA2a/CHO (Mus musculus (Mouse), UniProt Q60613). In words: cAMP inhibition assay in mA2a/CHO cells, 10 μM adenosine.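 Note: compounds preincubated 30 min at 37 °C before the adenosine challenge, then 30 min further stimulation, readout after 60 min detection reagent incubation at room temperature in 384-well plates.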 Type of assay: cell-based. Conditions: read-out: cAMP & FLIPR IC50 (nM) mA2a.
Another assay deals with hA2a (Homo sapiens (Human), UniProt P29274). In words: Radioligand binding to hA2a membrane with [3H]-CGS21680. The text has this:
The empty boxes in the tables below indicate data not collected yet.

Where [2] appears, read: read-out: Binding Affinity (IC50 nM) hA2a.
[3] abbreviates: Binding Affinity (IC50 nM) hA2a.

Sequence of mA2a/CHO (Q60613 whole entry): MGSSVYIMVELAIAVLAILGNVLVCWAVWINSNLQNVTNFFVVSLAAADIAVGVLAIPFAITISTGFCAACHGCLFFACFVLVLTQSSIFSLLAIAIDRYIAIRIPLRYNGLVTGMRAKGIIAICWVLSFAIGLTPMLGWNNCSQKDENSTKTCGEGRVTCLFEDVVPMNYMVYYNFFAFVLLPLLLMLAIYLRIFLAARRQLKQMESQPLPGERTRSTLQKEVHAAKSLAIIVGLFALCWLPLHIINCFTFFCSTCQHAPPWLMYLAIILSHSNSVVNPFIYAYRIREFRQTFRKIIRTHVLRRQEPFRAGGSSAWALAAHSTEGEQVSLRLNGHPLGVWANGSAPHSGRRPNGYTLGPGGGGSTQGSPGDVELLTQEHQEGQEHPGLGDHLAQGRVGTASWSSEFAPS
Sequence of hADORA1/CHO (hA1 expressing) cells (P30542 whole entry): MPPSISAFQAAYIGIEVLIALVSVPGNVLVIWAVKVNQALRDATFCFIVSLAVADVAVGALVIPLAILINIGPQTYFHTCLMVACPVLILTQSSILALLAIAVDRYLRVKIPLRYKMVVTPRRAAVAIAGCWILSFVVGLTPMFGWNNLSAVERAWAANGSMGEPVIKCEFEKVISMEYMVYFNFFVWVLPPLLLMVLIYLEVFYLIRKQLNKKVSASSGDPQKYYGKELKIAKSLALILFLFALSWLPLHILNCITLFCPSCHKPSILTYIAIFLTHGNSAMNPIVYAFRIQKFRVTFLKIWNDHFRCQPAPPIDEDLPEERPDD
Sequence of hA3/CHO (P0DMS8 whole entry): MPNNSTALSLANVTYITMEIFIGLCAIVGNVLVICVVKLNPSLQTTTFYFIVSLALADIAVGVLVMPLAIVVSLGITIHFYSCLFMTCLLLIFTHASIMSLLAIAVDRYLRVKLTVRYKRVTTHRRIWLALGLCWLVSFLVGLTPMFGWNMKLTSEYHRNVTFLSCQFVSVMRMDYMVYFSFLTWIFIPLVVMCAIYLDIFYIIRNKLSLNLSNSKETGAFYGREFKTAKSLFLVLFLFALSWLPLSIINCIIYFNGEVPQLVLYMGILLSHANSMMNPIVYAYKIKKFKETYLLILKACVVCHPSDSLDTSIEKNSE
Sequence of hA2b/CHO (P29275 whole entry): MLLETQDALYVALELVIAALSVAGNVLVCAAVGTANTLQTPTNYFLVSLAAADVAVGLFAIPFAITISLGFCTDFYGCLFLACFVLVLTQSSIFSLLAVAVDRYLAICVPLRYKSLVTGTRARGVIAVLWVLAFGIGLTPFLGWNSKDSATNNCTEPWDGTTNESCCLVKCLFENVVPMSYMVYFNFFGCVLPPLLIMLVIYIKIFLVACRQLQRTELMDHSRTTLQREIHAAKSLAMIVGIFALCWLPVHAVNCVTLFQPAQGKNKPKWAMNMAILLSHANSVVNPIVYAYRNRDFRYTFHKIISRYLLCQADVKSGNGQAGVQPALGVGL
Sequence of hA2a/CHO (P29274 whole entry): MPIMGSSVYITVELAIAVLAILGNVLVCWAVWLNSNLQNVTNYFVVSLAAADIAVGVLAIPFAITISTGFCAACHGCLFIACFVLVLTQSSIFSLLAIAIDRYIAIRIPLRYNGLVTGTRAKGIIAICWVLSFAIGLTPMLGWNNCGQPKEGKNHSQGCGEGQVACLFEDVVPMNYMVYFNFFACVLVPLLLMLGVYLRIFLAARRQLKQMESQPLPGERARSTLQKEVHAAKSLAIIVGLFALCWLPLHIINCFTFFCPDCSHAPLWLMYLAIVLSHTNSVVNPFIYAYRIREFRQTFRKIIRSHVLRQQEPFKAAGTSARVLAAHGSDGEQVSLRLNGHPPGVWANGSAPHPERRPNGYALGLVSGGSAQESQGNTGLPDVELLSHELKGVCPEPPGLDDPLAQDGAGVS
Sequence of hA2a (P29274 whole entry): as above

`Cn1cc(-c2nc(C(=O)NCc3ncccc3OC(F)(F)F)c(N)nc2-c2ncco2)ccc1=O` [Example 30, 3-amino-6-(1-methyl-6-oxo-1,6-dihydropyridin-3-yl)-5-(1,3-oxazol-2-yl)-N-[[3-(trifluoromethoxy)pyridin-2-yl]methyl]pyrazine-2-carboxamide]: the IC50 (usually the point on the concentration scale where inhibition reaches its midpoint) in assay [1] amounted to 214 nM; at hA2a/CHO it was 45 nM; on hA2b/CHO, 603 nM; on mA2a/CHO, 47 nM. In addition, the pIC50 (as a rule, −log10 of the IC50, conventionally taken in molar units) on hA3/CHO was not above 5.00.
With `CN(C)c1ccnc(CNC(=O)c2nc(-c3ccc(=O)n(C)c3)c(-c3ncco3)nc2N)n1` [Example 25, 3-amino-N-((4-(dimethylamino)pyrimidin-2-yl)methyl)-6-(1-methyl-6-oxo-1,6-dihydropyridin-3-yl)-5-(oxazol-2-yl)pyrazine-2-carboxamide], the IC50 in assay [1] was 3300 nM; at hA2a/CHO, 125 nM; on hA2b/CHO it was not below 10000 nM; on mA2a/CHO, 242 nM. The compound further gave a pIC50 against hA3/CHO not above 5.00.
Take `Nc1nc(-c2ncco2)c(-c2ccc(=O)n(CCO)c2)nc1C(=O)NCc1c(F)cccc1F` [Example 41, 3-amino-N-(2,6-difluorobenzyl)-6-(1-(2-hydroxyethyl)-6-oxo-1,6-dihydropyridin-3-yl)-5-(oxazol-2-yl)pyrazine-2-carboxamide]: the IC50 was 3.3 nM on hA2a (setting [2]); 123 nM in assay [1]; 1.6 nM at hA2a/CHO; 38 nM on hA2b/CHO; 13 nM at mA2a/CHO.
In the case of `Cc1cc(-c2nc(C(=O)NCc3c(F)cccc3F)c(N)nc2-c2ncco2)ccn1` [Example 10, 3-amino-N-(2,6-difluorobenzyl)-6-(2-methylpyridin-4-yl)-5-(oxazol-2-yl) pyrazine-2-carboxamide], the half-inhibitory concentration (IC50) was 58 nM in assay [1], 17 nM at hA2a/CHO, 17 nM on hA2b/CHO and 41 nM at mA2a/CHO. At hA3/CHO, this compound showed a negative logarithm of the IC50 (pIC50) not above 5.00.
With `Cn1nc(-c2nc(C(=O)NCc3c(F)cccc3F)c(N)nc2-c2ncco2)ccc1=O` [Example 37, 3-amino-N-(2,6-difluorobenzyl)-6-(1-methyl-6-oxo-1,6-dihydropyridazin-3-yl)-5-(oxazol-2-yl)pyrazine-2-carboxamide], the IC50 at hA2a (setting [2]) came to 1 nM; in assay [1], 28 nM; at hA2a/CHO it was 9.3 nM; at hA2b/CHO it was 95 nM; at mA2a/CHO, 56 nM.
In the case of `Cn1cc(-c2nc(C(=O)NCc3ncccc3C(F)(F)F)c(N)nc2-c2ncco2)ccc1=O` [Example 11, 3-amino-6-(1-methyl-6-oxo-1,6-dihydropyridin-3-yl)-5-(oxazol-2-yl)-N-((3-(trifluoromethyl)pyridin-2-yl)methyl)pyrazine-2-carboxamide], the IC50 in assay [1] amounted to 4490 nM; at hA2a/CHO, 89 nM; on hA2b/CHO, 1010 nM; at mA2a/CHO, 87 nM. At hA3/CHO, this compound gave a negative-log IC50 (pIC50) not above 5.00.
On to `Cn1cc(-c2nc(C(=O)NCc3cccc(N4CCC4)n3)c(N)nc2-c2ncco2)ccc1=O` [Example 26, 3-amino-N-[[6-(azetidin-1-yl)pyridin-2-yl]methyl]-6-(1-methyl-6-oxo-1,6-dihydropyridin-3-yl)-5-(1,3-oxazol-2-yl)pyrazine-2-carboxamide], for which the IC50 was 725 nM in assay [1], 108 nM at hA2a/CHO, not below 10000 nM at hA2b/CHO and 309 nM on mA2a/CHO. For the same compound, the pIC50 against hA3/CHO was not above 5.00.
Take `Nc1nc(-c2ncco2)c(-c2ccc3nccn3c2)nc1C(=O)NCc1c(F)cccc1F` [Example 32, 3-amino-N-[(2,6-difluorophenyl)methyl]-6-[imidazo[1,2-a]pyridin-6-yl]-5-(1,3-oxazol-2-yl)pyrazine-2-carboxamide]: the 50% inhibitory concentration (IC50) in assay [1] came out at 494 nM; on hA2a/CHO, 0.2 nM; at hA2b/CHO it was 3 nM; on mA2a/CHO, 2 nM. This compound showed a pIC50 on hA3/CHO not above 5.00.
Regarding `CC(NC(=O)c1nc(-c2ccc(=O)n(C)c2)c(-c2ncco2)nc1N)c1c(F)cccc1F` (single isomer, unassigned) [Example 40, 3-amino-N-(1-(2,6-difluorophenyl)ethyl)-6-(1-methyl-6-oxo-1,6-dihydropyridin-3-yl)-5-(oxazol-2-yl)pyrazine-2-carboxamide], the half-maximal inhibitory concentration (IC50) on hA2a (setting [3]) turned out to be 5.2 nM; in assay [1] it was 10000 nM; on hA2a/CHO it was 51 nM; at hA2b/CHO, 1350 nM; on mA2a/CHO, 211 nM.
With `Cc1cnc2ccc(-c3nc(C(=O)NCC4CCO4)c(N)nc3-c3ncco3)cn12` (single isomer, unassigned) [Example 134], the IC50 on hA2a (setting [3]) is 5.5 nM; at hA2a/CHO it was 4.3 nM; on hA2b/CHO it was 314 nM; on mA2a/CHO, 77 nM.
`Cc1cnc2ccc(-c3nc(C(=O)NCC4CCO4)c(N)nc3-c3ncco3)cn12` (single isomer, unassigned) [Example 135]: the half-inhibitory concentration (IC50) amounted to 2 nM at hA2a (setting [3]), 2.3 nM on hA2a/CHO, 182 nM at hA2b/CHO and 23 nM on mA2a/CHO.
With `Cc1cc(-c2nc(C(=O)NCc3ccccc3Br)c(N)nc2-c2ccc(F)cc2)cc(C)n1` [Example 80, 3-amino-N-(2-bromobenzyl)-6-(2,6-dimethylpyridin-4-yl)-5-(4-fluorophenyl) pyrazine-2-carboxamide], the 50% inhibitory concentration (IC50) in assay [1] was 1400 nM; on hA2a/CHO, 44 nM; at hA2b/CHO it was 4170 nM; on mA2a/CHO, 158 nM.
For `COc1cc(F)ccc1CNC(=O)c1nc(-c2cc(C)nc(C)c2)c(-c2ccc(F)cc2)nc1N` [Example 52, 3-amino-6-(2,6-dimethylpyridin-4-yl)-N-(4-fluoro-2-methoxybenzyl)-5-(4-fluorophenyl)pyrazine-2-carboxamide] the same measures were 2630 nM, 89 nM, not below 10000 nM and 5960 nM.
With `Cc1cnc2ccc(-c3nc(C(=O)NC[C@@H]4CCCN4)c(N)nc3-c3ncco3)cn12` [Example 123, (S)-3-amino-6-(3-methylimidazo[1,2-a]pyridin-6-yl)-5-(oxazol-2-yl)-N-(pyrrolidin-2-ylmethyl)pyrazine-2-carboxamide], the IC50 in assay [1] was determined as 10000 nM; at hA2a/CHO, 56 nM; at hA2b/CHO it was 1310 nM; at mA2a/CHO it was 153 nM.
On to `Nc1nc(-c2ncco2)c(-c2ccc(=O)n(C3COC3)c2)nc1C(=O)NCc1c(F)cccc1F` [Example 42, 3-amino-N-[(2,6-difluorophenyl)methyl]-5-(1,3-oxazol-2-yl)-6-[1-(oxetan-3-yl)-6-oxo-1,6-dihydropyridin-3-yl]pyrazine-2-carboxamide], for which the IC50 in assay [1] came out at 51 nM; on hA2a/CHO, 14 nM; on hA2b/CHO it was 102 nM; on mA2a/CHO, 16 nM.
Regarding `COCCOc1cccnc1CNC(=O)c1nc(-c2ccc3ncn(C)c3c2)c(-c2ccc(F)cc2)nc1N` [Example 114, 3-amino-5-(4-fluorophenyl)-N-[[3-(2-methoxyethoxy)pyridin-2-yl]methyl]-6-(1-methyl-1H-1,3-benzodiazol-6-yl)pyrazine-2-carboxamide], the IC50 in assay [1] came out at 83 nM; on hA2a/CHO it was 0.7 nM; on hA2b/CHO it was 170 nM; at mA2a/CHO, 1.5 nM.
For `Cc1cnc2ccc(-c3nc(C(=O)NC[C@H]4CCN(C(=O)C5CC5)C4)c(N)nc3-c3ncco3)cn12` [Cmpd. 219, 3-amino-N-[[(3R)-1-cyclopropanecarbonylpyrrolidin-3-yl]methyl]-6-[3-methylimidazo[1,2-a]pyridin-6-yl]-5-(1,3-oxazol-2-yl)pyrazine-2-carboxamide] the same measures were more than 10000 nM, 4.9 nM, 2300 nM and 220 nM.
`Cc1cnc2ccc(-c3nc(C(=O)NCC4CCCCO4)c(N)nc3-c3ncco3)cn12` (single isomer, unassigned; isomer 2) [Example 166, 3-amino-6-(3-methylimidazo[1,2-a]pyridin-6-yl)-5-(oxazol-2-yl)-N-((tetrahydro-2H-pyran-2-yl)methyl) pyrazine-2-carboxamide (isomer 2)]: the IC50 came out at 358 nM in assay [1], 0.24 nM on hA2a/CHO, 47 nM on hA2b/CHO and 1.48 nM on mA2a/CHO.
Consider `CNc1cccc(CNC(=O)c2nc(-c3ccc4nccn4c3)c(-c3ncco3)nc2N)n1` [Example 99, 3-amino-6-(imidazo[1,2-a]pyridin-6-yl)-N-((6-(methylamino)pyridin-2-yl)methyl)-5-(oxazol-2-yl)pyrazine-2-carboxamide], for which the half-maximal inhibitory concentration (IC50) in assay [1] came out at 171 nM; on hA2a/CHO, 5.1 nM; at hA2b/CHO, 200 nM; at mA2a/CHO, 35 nM.
For `Cn1cc(-c2nc(C(=O)NCc3ncccc3OC(F)F)c(N)nc2-c2ccc(F)cc2)ccc1=O` [Example 58, 3-amino-N-((3-(difluoromethoxy)pyridin-2-yl)methyl)-5-(4-fluorophenyl)-6-(1-methyl-6-oxo-1,6-dihydropyridin-3-yl)pyrazine-2-carboxamide] the same measures were 18 nM, 19 nM, 62 nM and 81 nM.
